Test results taken from patent US5658943A, “Phenylalanine derivatives as endothelin antagonists” (Warner-Lambert Company, priority 1995, dated 1997).
Where a SMILES comes first, the peptide text is derived from it. [ ]: non-standard residue; d: D form.

Tests used:
[1] = molecular target: T1, recombinant human ETA R (Homo sapiens, UniProt P25101); experiment: [125I]-ET-1 radioligand binding, Ltk- cells expressing recombinant human ETA R (HERBA-A); conditions: [125I]-ET-1 (40 pM), 2 hours at 37° C.
T1 construct: expressed in transfected cells; host or cells: Ltk- cells (membranes)
T1 sequence (P25101 21-427): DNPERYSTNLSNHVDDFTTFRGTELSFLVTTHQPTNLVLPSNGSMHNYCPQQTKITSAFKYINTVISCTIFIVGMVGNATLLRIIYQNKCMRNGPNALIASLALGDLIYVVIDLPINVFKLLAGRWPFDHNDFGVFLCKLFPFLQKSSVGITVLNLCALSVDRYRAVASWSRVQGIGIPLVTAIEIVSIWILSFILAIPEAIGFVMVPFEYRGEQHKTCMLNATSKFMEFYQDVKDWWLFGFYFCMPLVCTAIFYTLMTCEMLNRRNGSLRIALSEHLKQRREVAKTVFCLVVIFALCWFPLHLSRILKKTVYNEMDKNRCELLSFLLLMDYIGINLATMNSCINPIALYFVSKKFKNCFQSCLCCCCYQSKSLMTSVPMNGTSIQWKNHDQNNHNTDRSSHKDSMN
Protocol: (§1) The compounds of Formula I are valuable antagonists of endothelin.
(§2) The following cultured cells were used in binding experiments: rabbit renal artery vascular smooth muscle cells (ERBA-A), Ltk-cells expressing recombinant human ETA R (HERBA-A), and CHO-K1 cells expressing recombinant human ETB R (HERBA-B).
(§3) Membranes were prepared from cultured cells by lysing cells in cold lysis buffer (5 mM HEPES, 2 mM EDTA, pH 7.4) and homogenizing with a Dounce "A" homogenizer. The homogenate was centrifuged at 30,000×g for 20 minutes at 4° C. Membrane pellets were suspended in cold buffer containing 20 mM Tris, 2 mM EDTA, 200 μM Pefabloc, 10 μM phosphoramidon, 10 μM leupeptin, 1 μM pepstatin at pH 7.4 and frozen at -80° C. until use. Membranes were thawed and homogenized with a Brinkmann Polytron then diluted in tissue buffer containing 20 mM Tris, 2 mM EDTA, 200 μM Pefabloc and 100 μM bacitracin (pH 7.4). Radioligand and competing ligands were prepared in binding buffer containing 20 mMTris, 2 mM EDTA, and 0.1% BSA.
(§4) Competing binding assays were initiatedby combining membranes, [125I]-ET-1 (40 pM) and the competing ligand in a final volume of 250 μL and incubating for 2 hours at 37° C. The assay was terminated by filtration over Whatman GF/B filters which were presoaked with 50 mM Tris, pH 7.4 containing 0.2% BSA and 100 μM bacitracin. Nonspecific binding was defined as binding in the presence of 100 nMET-1.

[2] = test system: rat cerebellum (ETB); experiment: inhibition of ET-1 stimulated arachidonic acid release (AAR-B); type: cell-based; conditions: ET-1 (0.3 nM) stimulated [3H]arachidonic acid release, 30 minutes
Excerpt: as §1

[3] = molecular target: T2, recombinant human ETB R (Homo sapiens, UniProt P24530); experiment: [125I]-ET-1 radioligand binding, CHO-K1 cells expressing recombinant human ETB R (HERBA-B); conditions: [125I]-ET-1 (40 pM), 2 hours at 37° C.
T2 construct: expressed in transfected cells; host or cells: CHO-K1 cells (membranes)
T2 sequence (P24530 27-442): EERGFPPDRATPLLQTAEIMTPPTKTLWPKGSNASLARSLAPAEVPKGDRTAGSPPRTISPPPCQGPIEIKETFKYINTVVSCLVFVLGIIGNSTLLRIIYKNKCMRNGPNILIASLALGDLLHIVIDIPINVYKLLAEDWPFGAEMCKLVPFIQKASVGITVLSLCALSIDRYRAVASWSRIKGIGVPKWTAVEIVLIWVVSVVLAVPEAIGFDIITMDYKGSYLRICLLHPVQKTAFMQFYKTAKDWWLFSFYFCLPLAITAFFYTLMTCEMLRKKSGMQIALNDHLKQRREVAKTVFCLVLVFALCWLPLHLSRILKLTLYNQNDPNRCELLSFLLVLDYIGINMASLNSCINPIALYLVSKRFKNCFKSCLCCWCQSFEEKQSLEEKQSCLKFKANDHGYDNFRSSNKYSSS

[4] = molecular target: T3, rabbit renal artery vascular smooth muscle cells (ETA) (Oryctolagus cuniculus, UniProt A5A8K3); experiment: [125I]-ET-1 radioligand binding, rabbit renal artery vascular smooth muscle cells (ERBA-A); conditions: [125I]-ET-1 (40 pM), 2 hours at 37° C.
T3 construct: endogenous in cells; host or cells: cultured rabbit renal artery vascular smooth muscle cells (membranes)
T3 sequence (A5A8K3 21-427): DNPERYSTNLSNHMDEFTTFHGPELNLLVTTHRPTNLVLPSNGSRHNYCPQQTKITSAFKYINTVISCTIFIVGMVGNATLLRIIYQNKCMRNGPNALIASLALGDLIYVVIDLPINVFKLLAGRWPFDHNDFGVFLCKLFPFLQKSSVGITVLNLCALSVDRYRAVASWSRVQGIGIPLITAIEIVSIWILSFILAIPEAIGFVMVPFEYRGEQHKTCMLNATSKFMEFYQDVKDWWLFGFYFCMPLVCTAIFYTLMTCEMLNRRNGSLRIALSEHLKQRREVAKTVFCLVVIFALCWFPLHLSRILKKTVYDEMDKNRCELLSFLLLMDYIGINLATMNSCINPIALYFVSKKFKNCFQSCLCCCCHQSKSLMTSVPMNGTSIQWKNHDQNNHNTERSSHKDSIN
Protocol: as §1, §2, §3, §4

[5] = test system: ETA; conditions: mouse model of endotoxic shock; cited from earlier work
[6] = test system: ET receptor; conditions: allergic sheep; cited from earlier work
[7] = test system: ETA; conditions: in vivo; cited from earlier work
[8] = test system: endothelin receptor; conditions: rats; cited from earlier work
[9] = test system: endothelin receptor; conditions: rats; cited from earlier work; remark: listed apart in the source
[10] = test system: ETA /ETB receptor; conditions: in vivo; cited from earlier work
[11] = test system: ETB; conditions: isolated, endothelium-intact porcine pulmonary arteries; cited from earlier work

| Compound | IC50 [1] [µM] | IC50 [3] [µM] | IC50 [4] [µM] | further results |
| --- | --- | --- | --- | --- |
| COc1cccc(CC(NC(=O)C(c2ccccc2)c2ccccc2)C(=O)O)c1OCc1ccccc1 (racemic) [Example 3, (R,S)-N-(Diphenylacetyl)-3-methoxy-2-(phenylmethoxy)-phenylalanine] | 3.4 | 2 | – | IC50 [2]: 10 µM |
| COc1cccc(CC(NC(=O)C(c2ccccc2)c2ccccc2)C(=O)O)c1OCCc1ccccc1 (racemic) [Example 4, (R,S)-2-Diphenylacetylamino-3-[3-methoxy-2-(2-phenyl-ethoxy)phenyl]propionic acid] | 3.4 | 1 | 16 | IC50 [2]: 6.1 µM |
| COc1cccc(CC(NC(=O)N(c2ccccc2)c2ccccc2)C(=O)O)c1OCc1ccccc1 (racemic) [Example 5, (R,S)-3-(2Benzyloxy-3-methoxyphenyl)-2-(3,3-diphenyl-ureido) propionic acid] | – | 6.8 | 13 | – |
| COc1cccc(CC(NC(=O)C(c2ccccc2)c2ccccc2)C(=O)O)c1OCCCc1ccccc1 (racemic) [Example 7, (R,S)-Diphenylacetylamino-3-[3-methoxy-2-(3-phenyl-propoxy)phenyl]propionicacid] | 9.3 | 9.4 | – | – |
| COc1cccc(CC(NC(=O)C(c2ccccc2)c2ccccc2)C(=O)O)c1Oc1ccc([N+](=O)[O-])cc1 (racemic) [Example 8, (R,S)-2-Diphenylacetylamino-3-[3-method-2-(4-nitro-phenol)phenyl]propionicacid] | > 25 | – | 17 | – |
| COc1cccc(CC(NC(=O)C(Cc2cccc3ccccc23)Cc2cccc3ccccc23)C(=O)O)c1OCc1ccccc1 (racemic) [Example 9, (R,S)-3-(2-Benzyloxy-3-methoxyphenyl)-2-(3-naphthalen-1-yl-2-naphthalen-1-ylmethylpropionylamino)propionic acid] | – | 2.2 | > 25 | – |
| COc1cccc(CC(NC(=O)C(c2ccccc2)C2CCCC2)C(=O)O)c1OCc1ccccc1 (racemic) [Example 10, (R,S; R,S)-3-(2-Benzyloxy-3-methoxyphenyl)-2-(2-cyclopentyl-2-phenyl-acetylamino)propionic acid] | – | 2.2 | 23 | – |
| O=C(O)C(Cc1ccccc1OCc1ccccc1)NC(=O)C(c1ccccc1)c1ccccc1 (racemic) [Example 14, (R,S)-3-(2-Benzyloxyphenyl)-2-diphenylacetylamino-propionic acid] | – | 23 | > 25 | – |
| COc1cccc(CC(NCC(c2ccccc2)c2ccccc2)C(=O)O)c1OCc1ccccc1 (racemic) [Example 16, (R,S)-3-(2-Benzyloxy-3-methoxyphenyl)-2-(2,2-diphenyl-ethylamino)propionic acid] | – | 9.7 | 7.1 | – |
| COc1ccc(C(c2ccc3c(c2)OCO3)C(NC(=O)C(c2ccccc2)c2ccccc2)C(=O)O)cc1OCc1ccccc1 (racemic) [Example 23, (R,S: R,S)-3-Benzo[1,3]dioxol-5-yl-3-(3-benzyloxy-4-methoxyphenyl)-2-diphenyl-acetylaminopropionic acid] | 27 | 12 | – | – |
| COc1cccc(SC(c2cccc(OC)c2)C(NC(=O)C(c2ccccc2)c2ccccc2)C(=O)O)c1 (racemic) [Example 35, (R,S; R,S)-2-Diphenylacetylamino-3-(3-methoxyphenyl)-3-(3-methoxyphenyl-sulfanyl)propionic acid] | 1.8 | 3 | – | – |
| O=C(NC(C(=O)O)C(c1ccc2c(c1)OCO2)c1ccc2c(c1)OCO2)c1ccc2c(c1)OCO2 (racemic) [Example 38, (R,S)-2-[(Benzo[1,3]dioxole-5-carbonyl)-amino]-3,3-bis-benzo [1,3]dioxol-5-yl-propionic acid] | 1.3 | 13 | – | – |
| CC(C)c1ccc(S(=O)(=O)NC(C(=O)O)C(c2ccc3c(c2)OCO3)c2ccc3c(c2)OCO3)cc1 (racemic) [Example 40, (R,S)-3,3-Bis-benzo[1,3]dioxol-5-yl-2-(4-isopropyl-benzenesulfonylamino)-propionic acid] | 4 | 16 | – | – |
| CC(C)C[C@@H]1NC(=O)[C@@H](C(C)C)NC(=O)[C@@H]2CCCN2C(=O)[C@@H](CC(=O)O)NC(=O)[C@@H](Cc2c[nH]c3ccccc23)NC1=O [BQ-123] (cyclo(L[dW][dD]P[dV])) | – | – | – | survival rate [5]: significantly increased; ET-1 induced bronchoconstriction and tracheal smooth muscle contraction [6]: block; early cerebral vasospasm following subarachnoid hemorrhage [7]: prevent early cerebral vasospasm |
| O=C(NC(C(=O)O)C(c1ccc2c(c1)OCO2)c1ccc2c(c1)OCO2)C(c1ccccc1)c1ccccc1 (centres unmarked) [Example 21, 3,3 -Bis-benzo[1,3]dioxol-5-yl-2-diphenylacetylamino-propionic acid] | 1.3 | 2.5 | – | – |
| COc1cccc(Oc2c(NS(=O)(=O)c3ccc(C(C)(C)C)cc3)ncnc2OCCO)c1 [RO 46-2005] | – | – | – | efficacy in model of acute renal ischemia [8]: effective; efficacy in model of subarachnoid hemorrhage [9]: effective |
| CCCOc1ccc2c(c1)[C@@H](c1ccc(OC)cc1OCC(=O)O)[C@H](C(=O)O)[C@H]2c1ccc2c(c1)OCO2 [SB 209670] | – | – | – | neointimal formation after angioplasty [10]: reduced neointimal formation |
| ET[1,3,11,15-Ala] | – | – | – | vasorelaxation [11]: caused vasorelaxation |
